One experiment relates to MV4-11. The experiment in a line: Proliferation assay (MTT, leukaemia cancer cell line). Format: cell-based. The conditions noted are these: Homo sapiens; 1 µM compound, MV4-11 cells. An excerpt: Compounds from Example 1 were subjected to standard resazurin and MTT assays on solid tumour and leukaemia cancer cell lines, respectively, as previously reported (Wang S et al., J Med Chem 47:1662-1675, 2004 and Diab S et al., CheMedChem 9:962-972, 2014).

In a further experiment the target is T1, TYRO3 (Homo sapiens, UniProt Q06418).
T1 construct: purchased Eurofins Discovery (Kinase Profiler service)
T1 sequence (Q06418 41-890): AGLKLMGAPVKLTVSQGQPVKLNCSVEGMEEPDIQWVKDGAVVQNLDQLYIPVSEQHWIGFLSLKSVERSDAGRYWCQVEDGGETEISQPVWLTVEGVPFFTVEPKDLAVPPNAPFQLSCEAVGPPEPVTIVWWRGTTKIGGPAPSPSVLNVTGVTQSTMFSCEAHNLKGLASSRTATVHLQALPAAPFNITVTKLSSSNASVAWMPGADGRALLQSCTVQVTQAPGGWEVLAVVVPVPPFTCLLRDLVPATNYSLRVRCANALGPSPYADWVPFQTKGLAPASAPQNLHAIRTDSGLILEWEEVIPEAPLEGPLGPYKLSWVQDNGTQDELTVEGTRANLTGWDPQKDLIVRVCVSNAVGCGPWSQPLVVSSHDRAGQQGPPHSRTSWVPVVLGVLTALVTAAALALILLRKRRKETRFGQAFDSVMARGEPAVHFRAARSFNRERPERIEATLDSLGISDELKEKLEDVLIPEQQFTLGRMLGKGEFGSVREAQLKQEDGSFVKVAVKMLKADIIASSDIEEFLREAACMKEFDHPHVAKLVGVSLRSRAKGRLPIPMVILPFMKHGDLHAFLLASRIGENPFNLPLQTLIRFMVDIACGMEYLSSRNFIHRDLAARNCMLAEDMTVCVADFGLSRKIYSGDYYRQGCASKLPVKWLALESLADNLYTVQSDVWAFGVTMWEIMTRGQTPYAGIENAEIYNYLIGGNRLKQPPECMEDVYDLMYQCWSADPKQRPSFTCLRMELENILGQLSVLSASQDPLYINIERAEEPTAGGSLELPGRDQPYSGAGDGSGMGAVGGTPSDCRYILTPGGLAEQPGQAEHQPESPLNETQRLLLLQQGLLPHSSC
Put plainly: Filter-binding radiometric kinase activity assay (KinaseProfiler, Eurofins). As to conditions: 1 µM compound; read-out: % Residual enzymatic activity at 1 µM TYRO3. The experiment is classed as biochemical. Here is the method:
(§1) Filter-binding radiometric kinase activity assay (Kinase Profiler™) from Eurofins Discovery was used to determine the % of inhibition and/or IC50 values. […] The reaction is initiated by the addition of the Mg/ATP mixture. After incubation for 40 minutes at room temperature, the reaction is stopped by the addition of phosphoric acid to a concentration of 0.5%. 10 µL of the reaction is then spotted onto a P30 filter mat and washed four times for 4 minutes in 0.425% phosphoric acid and once in methanol prior to drying and scintillation counting. The IC50 values were derived by fitting a sigmoidal dose-response curve to a plot of assay readout over inhibitor concentration. All fits were computed with the GraphPad Prism Software (San Diego, CA, United States of America). Ki values were derived from IC5o values using Cheng Prusoff equation (Cheng Y et al., Biochem Pharmacol 22(23):3099-3108, 1973).

The next experiment deals with T2, AXL (Homo sapiens, UniProt P30530).
T2 construct: purchased Eurofins Discovery (Kinase Profiler service)
T2 sequence (P30530 26-894): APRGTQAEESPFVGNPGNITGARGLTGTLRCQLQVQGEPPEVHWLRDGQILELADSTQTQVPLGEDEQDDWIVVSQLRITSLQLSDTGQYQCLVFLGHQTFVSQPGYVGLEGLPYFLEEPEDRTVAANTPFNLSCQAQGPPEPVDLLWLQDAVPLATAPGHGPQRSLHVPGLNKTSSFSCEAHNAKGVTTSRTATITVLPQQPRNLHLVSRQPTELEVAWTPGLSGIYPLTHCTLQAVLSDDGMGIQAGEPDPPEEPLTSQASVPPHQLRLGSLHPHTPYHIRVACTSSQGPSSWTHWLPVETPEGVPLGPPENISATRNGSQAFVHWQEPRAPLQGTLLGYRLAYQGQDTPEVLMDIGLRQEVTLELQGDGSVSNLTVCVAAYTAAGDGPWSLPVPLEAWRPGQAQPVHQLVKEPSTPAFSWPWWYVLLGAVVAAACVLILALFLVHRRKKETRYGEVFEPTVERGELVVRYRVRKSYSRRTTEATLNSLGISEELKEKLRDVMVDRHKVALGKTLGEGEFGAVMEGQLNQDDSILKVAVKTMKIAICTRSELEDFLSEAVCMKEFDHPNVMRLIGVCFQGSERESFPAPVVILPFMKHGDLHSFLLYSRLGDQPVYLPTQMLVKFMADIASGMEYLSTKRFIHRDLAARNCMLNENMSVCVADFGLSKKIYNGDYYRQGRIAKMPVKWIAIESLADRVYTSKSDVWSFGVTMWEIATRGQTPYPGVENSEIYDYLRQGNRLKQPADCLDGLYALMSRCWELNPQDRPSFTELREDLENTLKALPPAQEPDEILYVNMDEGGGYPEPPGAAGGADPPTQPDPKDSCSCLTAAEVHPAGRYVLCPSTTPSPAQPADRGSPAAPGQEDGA
Described as above. As to conditions: 1 µM compound; read-out: % Residual enzymatic activity at 1 µM AXL. The experiment is classed as biochemical. The procedure: as §1

In another experiment the target is T3, MET (Homo sapiens, UniProt P08581).
T3 construct: purchased Eurofins Discovery (Kinase Profiler service)
T3 sequence (P08581 25-1390): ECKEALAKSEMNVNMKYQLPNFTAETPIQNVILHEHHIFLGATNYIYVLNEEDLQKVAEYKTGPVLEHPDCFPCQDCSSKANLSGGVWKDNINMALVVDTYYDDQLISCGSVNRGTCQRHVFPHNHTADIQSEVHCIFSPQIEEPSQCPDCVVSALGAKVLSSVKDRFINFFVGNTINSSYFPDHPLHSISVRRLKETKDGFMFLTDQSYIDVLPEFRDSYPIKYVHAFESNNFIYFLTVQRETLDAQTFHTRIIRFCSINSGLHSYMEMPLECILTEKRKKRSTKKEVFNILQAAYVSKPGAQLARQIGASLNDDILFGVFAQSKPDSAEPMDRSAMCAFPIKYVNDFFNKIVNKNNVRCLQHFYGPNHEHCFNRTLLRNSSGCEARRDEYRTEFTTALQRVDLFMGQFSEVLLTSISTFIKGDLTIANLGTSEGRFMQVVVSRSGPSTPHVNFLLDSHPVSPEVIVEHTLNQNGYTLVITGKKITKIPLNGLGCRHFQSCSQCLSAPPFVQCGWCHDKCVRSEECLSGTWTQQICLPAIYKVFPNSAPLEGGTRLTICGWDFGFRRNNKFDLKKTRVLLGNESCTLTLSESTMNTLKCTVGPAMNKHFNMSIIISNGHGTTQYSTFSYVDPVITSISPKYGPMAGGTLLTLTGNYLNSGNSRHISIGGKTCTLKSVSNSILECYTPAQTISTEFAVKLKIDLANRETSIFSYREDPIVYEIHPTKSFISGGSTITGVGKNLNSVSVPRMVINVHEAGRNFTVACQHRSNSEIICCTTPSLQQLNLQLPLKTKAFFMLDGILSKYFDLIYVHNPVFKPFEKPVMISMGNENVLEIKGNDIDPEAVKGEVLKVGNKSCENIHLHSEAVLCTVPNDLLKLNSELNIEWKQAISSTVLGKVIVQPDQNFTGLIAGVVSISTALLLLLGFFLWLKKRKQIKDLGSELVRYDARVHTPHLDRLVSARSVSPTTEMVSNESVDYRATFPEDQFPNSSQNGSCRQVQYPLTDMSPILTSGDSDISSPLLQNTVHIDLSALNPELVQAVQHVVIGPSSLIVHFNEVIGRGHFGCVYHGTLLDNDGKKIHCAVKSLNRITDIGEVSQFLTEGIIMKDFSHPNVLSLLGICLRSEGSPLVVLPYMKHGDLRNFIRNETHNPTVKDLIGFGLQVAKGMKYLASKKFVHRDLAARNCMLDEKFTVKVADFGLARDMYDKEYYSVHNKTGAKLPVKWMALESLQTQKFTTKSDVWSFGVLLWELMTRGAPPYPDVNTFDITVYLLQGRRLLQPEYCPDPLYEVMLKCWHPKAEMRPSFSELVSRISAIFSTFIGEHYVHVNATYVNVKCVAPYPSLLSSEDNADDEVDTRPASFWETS
Described as above. The experiment is classed as biochemical. As to conditions: 1 µM compound; read-out: % Residual enzymatic activity at 1 µM MET. Here is the method: as §1

Another experiment deals with T4, Mer (Homo sapiens, UniProt Q12866).
T4 construct: purchased Eurofins Discovery (Kinase Profiler service)
T4 sequence (Q12866 21-999): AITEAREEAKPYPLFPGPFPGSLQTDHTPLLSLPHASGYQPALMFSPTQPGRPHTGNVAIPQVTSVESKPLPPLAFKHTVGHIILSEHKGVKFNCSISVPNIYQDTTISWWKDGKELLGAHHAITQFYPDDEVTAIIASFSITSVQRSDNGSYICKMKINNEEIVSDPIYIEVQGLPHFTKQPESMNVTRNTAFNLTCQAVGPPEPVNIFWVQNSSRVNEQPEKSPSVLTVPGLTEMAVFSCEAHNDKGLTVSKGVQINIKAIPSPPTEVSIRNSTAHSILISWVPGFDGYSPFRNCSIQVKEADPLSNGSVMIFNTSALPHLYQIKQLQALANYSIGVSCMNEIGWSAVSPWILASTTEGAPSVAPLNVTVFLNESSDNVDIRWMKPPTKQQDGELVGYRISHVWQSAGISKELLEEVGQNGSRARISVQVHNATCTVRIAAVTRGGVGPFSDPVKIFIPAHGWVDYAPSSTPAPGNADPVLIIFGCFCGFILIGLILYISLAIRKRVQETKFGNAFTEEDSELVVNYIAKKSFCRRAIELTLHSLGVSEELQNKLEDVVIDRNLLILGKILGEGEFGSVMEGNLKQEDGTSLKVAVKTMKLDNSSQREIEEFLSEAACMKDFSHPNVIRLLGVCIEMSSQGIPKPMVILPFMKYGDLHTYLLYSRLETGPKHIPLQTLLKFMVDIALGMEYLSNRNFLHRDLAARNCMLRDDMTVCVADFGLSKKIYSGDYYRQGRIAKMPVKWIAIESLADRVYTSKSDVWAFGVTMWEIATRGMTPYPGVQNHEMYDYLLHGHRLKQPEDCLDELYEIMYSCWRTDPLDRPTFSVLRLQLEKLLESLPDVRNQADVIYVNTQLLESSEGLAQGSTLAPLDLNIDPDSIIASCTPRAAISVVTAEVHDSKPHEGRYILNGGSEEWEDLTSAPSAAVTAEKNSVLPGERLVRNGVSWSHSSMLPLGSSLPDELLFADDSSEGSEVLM
The experiment is described as above. The experiment is classed as biochemical. The conditions noted are these: 1 µM compound; read-out: % Residual enzymatic activity at 1 µM Mer. Here is the method: as §1

The target in another experiment is CDK2E (Homo sapiens, UniProt P24941). The experiment in a line: ADP Glo Kinase assay. Format: biochemical. As to conditions: 1 µM compound; read-out: % Residual enzymatic activity at 1 µM CDK2E. The procedure:
Inhibition of CDKs and FLT3 were determined using ADP Glo Kinase assays, as previously described in International Patent Publication No WO 2017/020065.

`Cc1ccc(-n2cccc(C(=O)Nc3ccc(Oc4ncnc(N)c4Cl)cc3F)c2=O)cc1` [Cmpd 15, N-(4-((6-amino-5-chloropyrimidin-4-yl)oxy)-2-fluorophenyl)-2-oxo-1-(p-tolyl)-1,2-dihydropyridine-3-carboxamide] returned an activity at 1 µM in the experiment on MV4-11 of 26%. Also, the remaining activity at 1 µM on TYRO3 is 39%; on AXL, 64%; on MET, 74%; at Mer it was 99%.

As to `Nc1ncnc(Oc2ccc(NC(=O)c3cccn(-c4ccc(Cl)cc4)c3=O)c(F)c2)c1Cl` [Cmpd 33, N-(4-((6-amino-5-chloropyrimidin-4-yl)oxy)-2-fluorophenyl)-1-(4-chlorophenyl)-2-oxo-1,2-dihydropyridine-3-carboxamide], in the experiment on MV4-11, the activity at 1 µM was found to be 1%. Further, the remaining activity at 1 µM on TYRO3 stood at 6%; at AXL, 23%; at MET, 10%; at Mer it was 74%; on CDK2E, 82%.

As for `Nc1ncnc(Oc2cc(F)c(NC(=O)c3cccn(-c4ccc(F)cc4)c3=O)cc2F)c1F` [Cmpd 20, N-(4-((6-amino-5-fluoropyrimidin-4-yl)oxy)-2,5-difluorophenyl)-1-(4-fluorophenyl)-2-oxo-1,2-dihydropyridine-3-carboxamide], the activity at 1 µM with MV4-11 stood at 5%. The remaining activity at 1 µM on TYRO3 was 2%; on AXL it was 31%; at MET, 4%; at Mer, 54%; at CDK2E, 93%.

Take `Nc1ncnc(Nc2ccc(NC(=O)c3cccn(-c4ccc(F)cc4)c3=O)cc2F)c1Cl` [Cmpd 36, N-(4-((6-amino-5-chloropyrimidin-4-yl)amino)-3-fluorophenyl)-1-(4-fluorophenyl)-2-oxo-1,2-dihydropyridine-3-carboxamide]: the activity at 1 µM with MV4-11 is 4%. The remaining activity at 1 µM came out at 70% on TYRO3; 97% on AXL; 87% at MET; 99% at Mer; 96% on CDK2E.

As to `Cc1ccc(-n2cccc(C(=O)Nc3ccc(Oc4ncnc(N)c4F)c(F)c3)c2=O)cc1` [Cmpd 35, N-(4-((6-amino-5-fluoropyrimidin-4-yl)oxy)-3-fluorophenyl)-2-oxo-1-(p-tolyl)-1,2-dihydropyridine-3-carboxamide], the activity at 1 µM with MV4-11 stood at 6%. Besides, the remaining activity at 1 µM at TYRO3 was found to be 14%; on AXL, 70%; at MET, 60%; on Mer, 99%; at CDK2E, 97%.

As for `Nc1ncc(Cl)c(Oc2ccc(NC(=O)c3cccn(-c4ccc(F)cc4)c3=O)cc2F)n1` [Cmpd 24, N-(4-((2-amino-5-chloropyrimidin-4-yl)oxy)-3-fluorophenyl)-1-(4-fluorophenyl)-2-oxo-1,2-dihydropyridine-3-carboxamide], in the experiment with MV4-11, the activity at 1 µM came to 27%. Also, the remaining activity at 1 µM was found to be 94% at TYRO3, 99% on AXL, 74% on MET and 87% on Mer.

In the case of `Nc1ncnc(Sc2ccc(NC(=O)c3cccn(-c4ccc(F)cc4)c3=O)c(F)c2)c1Cl` [Cmpd 39, N-(4-((6-amino-5-chloropyrimidin-4-yl)thio)-2-fluorophenyl)-1-(4-fluorophenyl)-2-oxo-1,2-dihydropyridine-3-carboxamide], the activity at 1 µM in the experiment with MV4-11 is 4%. In addition, the remaining activity at 1 µM on AXL came out at 87%; on MET, 70%; on Mer, 82%; on CDK2E it was 88%.

For `Nc1ncc(Cl)c(Oc2ccc(NC(=O)c3cccn(-c4ccc(F)cc4)c3=O)c(F)c2)n1` [Cmpd 25, N-(4-((2-amino-5-chloropyrimidin-4-yl)oxy)-2-fluorophenyl)-1-(4-fluorophenyl)-2-oxo-1,2-dihydropyridine-3-carboxamide], the activity at 1 µM with MV4-11 amounted to 65%. In addition, the remaining activity at 1 µM at TYRO3 amounted to 89%; at AXL, 92%; on MET it was 87%; on Mer it was 88%.
